Results reported in ChEMBL document CHEMBL4339250 (J Nat Prod, 2019).
Activity calls are given as the source filed them. The calls are words filed in the database; no cut-off is given here.

Assays:
[1] = target: T1, Peroxisome proliferator-activated receptor alpha (Homo sapiens) (UniProt Q07869); experiment: Agonist activity at human PPARalpha expressed in African green monkey COS7 cells assessed as increase in receptor transcriptional activity at 10 uM by luciferase reporter gene assay relative to WY-14643; format: cell-based
T1 sequence (whole entry): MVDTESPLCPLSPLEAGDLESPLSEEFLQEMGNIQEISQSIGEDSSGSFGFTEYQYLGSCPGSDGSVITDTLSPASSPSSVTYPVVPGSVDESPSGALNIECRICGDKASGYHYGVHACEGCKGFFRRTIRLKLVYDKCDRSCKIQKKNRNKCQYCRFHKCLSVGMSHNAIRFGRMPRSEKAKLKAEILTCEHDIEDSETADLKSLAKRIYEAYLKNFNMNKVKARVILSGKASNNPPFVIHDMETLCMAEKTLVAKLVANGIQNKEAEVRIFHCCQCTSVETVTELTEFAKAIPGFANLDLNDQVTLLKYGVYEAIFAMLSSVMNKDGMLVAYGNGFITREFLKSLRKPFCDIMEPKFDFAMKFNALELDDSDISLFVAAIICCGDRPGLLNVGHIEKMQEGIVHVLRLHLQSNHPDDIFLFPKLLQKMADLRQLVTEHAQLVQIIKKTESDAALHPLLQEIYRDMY

[2] = target: T2, Peroxisome proliferator-activated receptor alpha (Homo sapiens, UniProt Q07869); experiment: Agonist activity at human PPARalpha expressed in African green monkey COS7 cells assessed as increase in receptor transcriptional activity by luciferase reporter gene assay relative to WY-14643; format: cell-based
T2 sequence (Q07869 whole entry): T1 sequence (whole entry)

[3] = target: T3, Peroxisome proliferator-activated receptor gamma (Homo sapiens, UniProt P37231); experiment: Agonist activity at human PPARgamma expressed in African green monkey COS7 cells assessed as increase in receptor transcriptional activity by luciferase reporter gene assay relative to rosiglitazone; format: cell-based
T3 sequence (P37231 whole entry): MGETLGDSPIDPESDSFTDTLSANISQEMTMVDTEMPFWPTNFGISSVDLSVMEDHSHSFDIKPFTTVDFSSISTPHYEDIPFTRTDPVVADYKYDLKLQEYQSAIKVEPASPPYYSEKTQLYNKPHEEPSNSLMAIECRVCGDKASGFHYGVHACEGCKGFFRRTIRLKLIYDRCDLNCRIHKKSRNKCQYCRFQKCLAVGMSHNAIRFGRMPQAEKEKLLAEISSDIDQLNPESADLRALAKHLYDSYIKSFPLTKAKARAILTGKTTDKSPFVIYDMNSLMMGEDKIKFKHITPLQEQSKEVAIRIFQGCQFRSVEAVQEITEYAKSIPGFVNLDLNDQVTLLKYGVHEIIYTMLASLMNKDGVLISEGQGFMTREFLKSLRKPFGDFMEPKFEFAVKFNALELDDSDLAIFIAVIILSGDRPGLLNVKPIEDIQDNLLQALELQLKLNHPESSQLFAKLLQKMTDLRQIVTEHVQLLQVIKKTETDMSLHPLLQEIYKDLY

Neutrophil [4] = experiment: Cytotoxicity against human neutrophils assessed as reduction in cell viability at 30 uM incubated for 24 hrs by MTT assay; format: cell-based
HUVEC [5] = experiment: Cytotoxicity against HUVEC assessed as reduction in cell viability at 30 uM incubated for 24 hrs by MTT assay; format: cell-based; details: human
[6] = Cytotoxicity against human neutrophils assessed as cell viability at 30 uM incubated for 24 hrs by MTT assay; format: cell-based, Neutrophil; details: read-out: Activity
[7] = Cytotoxicity against HUVEC assessed as cell viability at 30 uM incubated for 24 hrs by MTT assay; format: cell-based; details: human, HUVEC cells; read-out: Activity
Neutrophil [8] = experiment: Induction of apoptosis in human neutrophils at 30 uM incubated for 24 hrs by annexin V-FITC and propidium iodide staining based flow cytometry; format: cell-based
HUVEC [9] = experiment: Induction of apoptosis in HUVEC at 30 uM incubated for 24 hrs by annexin V-FITC and propidium iodide staining based flow cytometry; format: cell-based; details: human
HUVEC [10] = experiment: Anti-inflammatory activity in HUVEC assessed as reduction in TNFalpha-stimulated neutrophil-HUVEC interactions by measuring decrease in neutrophil adhesion to endothelial cells at 1 uM pretreated for 20 hrs before TNFalpha stimulation for 24 hrs using freshly isolated neutrophils perfused over endothelial monolayers for 5 mins by phase contrast microscopy; format: functional, cell-based; details: Homo sapiens
HUVEC [11] = experiment: Anti-inflammatory activity in HUVEC assessed as reduction in TNFalpha-stimulated neutrophil-HUVEC interactions by measuring decrease in mononuclear leukocyte to endothelial cells at 1 uM pretreated for 20 hrs before TNFalpha stimulation for 24 hrs using freshly isolated mononuclear leukocytes perfused over endothelial monolayers for 5 mins by phase contrast microscopy; format: functional, cell-based; details: Homo sapiens
HUVEC [12] = experiment: Anti-inflammatory activity in HUVEC assessed as reduction in TNFalpha-stimulated neutrophil-HUVEC interactions by measuring decrease in mononuclear leukocyte to endothelial cells pretreated for 20 hrs before TNFalpha stimulation for 24 hrs using freshly isolated mononuclear leukocytes perfused over endothelial monolayers for 5 mins by phase contrast microscopy; format: functional, cell-based; details: Homo sapiens
HUVEC [13] = experiment: Anti-inflammatory activity in HUVEC assessed as reduction in TNFalpha-stimulated neutrophil-HUVEC interactions by measuring decrease in mononuclear leukocyte to endothelial cells at 10 uM treated for 20 hrs post 48 hrs after control siRNA transfection followed by TNFalpha stimulation for 24 hrs using freshly isolated mononuclear leukocytes perfused over endothelial monolayers for 5 mins by phase contrast microscopy; format: functional, cell-based; details: Homo sapiens
HUVEC [14] = experiment: Anti-inflammatory activity in HUVEC assessed as reduction in TNFalpha-stimulated neutrophil-HUVEC interactions by measuring decrease in mononuclear leukocyte to endothelial cells at 10 uM treated for 20 hrs post 48 hrs after PPARalpha siRNA transfection followed by TNFalpha stimulation for 24 hrs using freshly isolated mononuclear leukocytes perfused over endothelial monolayers for 5 mins by phase contrast microscopy; format: functional, cell-based; details: Homo sapiens
HUVEC [15] = experiment: Anti-inflammatory activity in HUVEC assessed as reduction in TNFalpha-stimulated neutrophil-HUVEC interactions by measuring decrease in mononuclear leukocyte to endothelial cells at 10 uM treated for 20 hrs post 48 hrs after PPARgamma siRNA transfection followed by TNFalpha stimulation for 24 hrs using freshly isolated mononuclear leukocytes perfused over endothelial monolayers for 5 mins by phase contrast microscopy; format: functional, cell-based; details: Homo sapiens
HUVEC [16] = experiment: Anti-inflammatory activity in HUVEC assessed as reduction in TNFalpha-stimulated neutrophil-HUVEC interactions by measuring decrease in mononuclear leukocyte to endothelial cells at 10 uM treated for 20 hrs post 48 hrs after RXRalpha siRNA transfection followed by TNFalpha stimulation for 24 hrs using freshly isolated mononuclear leukocytes perfused over endothelial monolayers for 5 mins by phase contrast microscopy; format: functional, cell-based; details: Homo sapiens
[17] = target: RXR alpha/PPAR gamma (Homo sapiens) (UniProt P37231+P19793); experiment: Induction of RXRalpha/PPARgamma interaction in HUVEC at 10 uM pretreated for 20 hrs before TNFalpha stimulation by immunoprecipitation and Western blotting analysis; format: cell-based
HUVEC [18] = experiment: Anti-inflammatory activity in HUVEC assessed as reduction in TNFalpha-stimulated neutrophil-HUVEC interactions by measuring decrease in mononuclear leukocyte to endothelial cells at 10 uM pretreated for 20 hrs before TNFalpha stimulation for 24 hrs using freshly isolated mononuclear leukocytes perfused over endothelial monolayers for 5 mins in presence of PPARgamma antagonist GW9662 by phase contrast microscopy; format: functional, cell-based; details: Homo sapiens
HUVEC [19] = experiment: Anti-inflammatory activity in HUVEC assessed as reduction in TNFalpha-stimulated neutrophil-HUVEC interactions by measuring decrease in mononuclear leukocyte to endothelial cells at 10 uM pretreated for 20 hrs before TNFalpha stimulation for 24 hrs using freshly isolated mononuclear leukocytes perfused over endothelial monolayers for 5 mins in presence of PPARalpha antagonist GW6471 by phase contrast microscopy; format: functional, cell-based; details: Homo sapiens
[20] = target: T4, Peroxisome proliferator-activated receptor gamma (Homo sapiens) (UniProt P37231); details: at 10 µM
T4 sequence (whole entry): T3 sequence (P37231 whole entry)

Neutrophil [21] = experiment: Cytotoxicity against human neutrophils assessed as induction of cell damage at 30 uM incubated for 24 hrs by MTT assay; format: cell-based
HUVEC [22] = experiment: Cytotoxicity against HUVEC assessed as induction of cell damage at 30 uM incubated for 24 hrs by MTT assay; format: cell-based; details: human
HUVEC [23] = experiment: Anti-inflammatory activity in HUVEC assessed as reduction in TNFalpha-stimulated neutrophil-HUVEC interactions by measuring decrease in mononuclear leukocyte to endothelial cells at 1 uM treated for 20 hrs post 48 hrs after control siRNA transfection followed by TNFalpha stimulation for 24 hrs using freshly isolated mononuclear leukocytes perfused over endothelial monolayers for 5 mins by phase contrast microscopy; format: functional, cell-based; details: Homo sapiens
HUVEC [24] = experiment: Anti-inflammatory activity in HUVEC assessed as reduction in TNFalpha-stimulated neutrophil-HUVEC interactions by measuring decrease in mononuclear leukocyte to endothelial cells at 1 uM treated for 28 hrs post 48 hrs after PPARalpha siRNA transfection followed by TNFalpha stimulation for 24 hrs using freshly isolated mononuclear leukocytes perfused over endothelial monolayers for 5 mins by phase contrast microscopy; format: functional, cell-based; details: Homo sapiens

Cc1cc(SCc2sc(-c3ccc(C(F)(F)F)cc3)nc2C)ccc1OCC(=O)O
Efficacy [1]: inactive

C/C(=C\CC[C@]1(C)CCc2cc(OCc3ccccc3)cc(C)c2O1)CC/C=C(\C)C(=O)OCc1ccccc1
Efficacy [1]: 28%

C/C(=C\CC[C@]1(C)CCc2cc(O)cc(C)c2O1)CC/C=C(\C)C(=O)O
Efficacy [1]: 107%
EC50 ([2]; read-out: EC50): 0.184 µM
EC50 ([3]; read-out: EC50): 0.084 µM
Activity (Neutrophil [4]): Non-Toxic
Activity (HUVEC [5]): Non-Toxic
viability at 24 h, 30 µM [6]: 89.2%
viability at 24 h, 30 µM [7]: 73.4%
Activity (Neutrophil [8]): Non-Toxic
Activity (HUVEC [9]): Non-Toxic
Activity (HUVEC [10]): inactive
Activity (HUVEC [11]): Active
IC50 (HUVEC [12]): 4.9 µM
Activity (HUVEC [13]): Active
Activity (HUVEC [14]): Active
Activity (HUVEC [15]): inactive
Activity (HUVEC [16]): inactive
Activity [17]: Active
Activity (HUVEC [18]): inactive
Activity (HUVEC [19]): Active
Efficacy [20]: 95%

COC(=O)/C(C)=C/CC/C(C)=C/CC[C@]1(C)CCc2cc(O)cc(C)c2O1
Efficacy [1]: 27%
Efficacy [20]: 35%

CC1=C(/C=C/C(C)=C\C=C\C(C)=C\C(=O)O)C(C)(C)CCC1
Efficacy [1]: inactive

COc1cc(C)c2c(c1)CC[C@@](C)(CC/C=C(\C)CC/C=C(\C)C(=O)O)O2
Efficacy [1]: 82%
EC50 ([2]; read-out: EC50): 1 µM
EC50 ([3]; read-out: EC50): 1 µM
Activity (Neutrophil [21]): Toxic
Activity (HUVEC [22]): Toxic
Efficacy [20]: 55%

COC(=O)C(OC(=O)/C(C)=C/CC/C(C)=C/CC[C@]1(C)CCc2cc(OC)cc(C)c2O1)C(=O)OC
Efficacy [1]: 76%
EC50 ([2]; read-out: EC50): 1.62 µM
Efficacy [20]: 37%

CCCOc1cc(C)c2c(c1)CC[C@@](C)(CC/C=C(\C)CC/C=C(\C)C(=O)O)O2
Efficacy [1]: 191%
EC50 ([2]; read-out: EC50): 1 µM
EC50 ([3]; read-out: EC50): 1.69 µM
Efficacy [20]: 88%

C/C(=C\CC[C@]1(C)CCc2cc(OCC(N)=O)cc(C)c2O1)CC/C=C(\C)C(=O)OCc1ccccc1
Efficacy [1]: 18%

CCCOC(=O)/C(C)=C/CC/C(C)=C/CC[C@]1(C)CCc2cc(O)cc(C)c2O1
Efficacy [1]: 49%
EC50 ([3]; read-out: EC50): 0.991 µM
Efficacy [20]: 86%

Cc1cccc(Nc2cc(Cl)nc(SCC(=O)O)n2)c1C [PIRINIXIC ACID]
EC50 [3]: Not Active
Activity (HUVEC [10]): inactive

COC(=O)COC(=O)/C(C)=C/CC/C(C)=C/CC[C@]1(C)CCc2cc(OC(=O)c3ccccc3)cc(C)c2O1
Efficacy [1]: 14%

CN(CCOc1ccc(CC2SC(=O)NC2=O)cc1)c1ccccn1 (stereo unspecified) [ROSIGLITAZONE]
Efficacy [1]: inactive
EC50 [2]: Not Active
Activity (Neutrophil [4]): Toxic
Activity (HUVEC [5]): Toxic
Activity (HUVEC [10]): inactive
Activity (HUVEC [11]): Active
inhibition (HUVEC [12]): Dose-dependent effect
Activity (HUVEC [23]): Active
Activity (HUVEC [24]): Active

COC(=O)COC(=O)/C(C)=C/CC/C(C)=C/CC[C@]1(C)CCc2cc(OC)cc(C)c2O1
Efficacy [1]: 39%
Efficacy [20]: 24%
